Active and inactive are the calls of the source.
Columns and labels:
Prothrombin = Prothrombin (Homo sapiens, UniProt P00734); assay: Thrombin 1536 HTS Dose Response Confirmation. [Related pubchem assays: 1046 (Thrombin 1536 HTS; hits were confirmed in this assay)]; type: functional
[1] = Vero cell cytotoxicity, dose response, cytotoxicity control for Vif-APOBEC3G degradation inhibitor project, Vero cells (AID 1117358); type: functional; conditions: Human immunodeficiency virus 1, Vero
[2] = Luminescence Cell-Based Dose Confirmation HTS to Identify Inhibitors of Polyadenylation.; type: functional
[3] = growth suppression of PTEN-null colon cells, dose response, cell-based, HCT116 PTEN knockout (AID 1047); type: functional;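 note: HCT116 colon tumor cells with PTEN knocked out; cells exposed to compound for 60 hours before readout; potency for loss of cell viability measured by luminescence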
[4] = growth suppression of beta-catenin-knockout colon cells, dose response, cell-based, HCT116, human colon tumor (AID 1045); type: functional;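 note: HCT116 colon tumor cells with beta catenin knocked out; cells exposed to compound for 60 hours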
[5] = target: Induced myeloid leukemia cell differentiation protein Mcl-1 (Homo sapiens, UniProt Q07820); type: functional
Protein Tat = target: T1, Protein Tat (Human immunodeficiency virus type 1 group M subtype B (isolate HXB2)(HIV-1), UniProt P04608); type: functional;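 note: tat binding to TAR RNA read out by fluorescence polarization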
T1 sequence (P04608 whole entry): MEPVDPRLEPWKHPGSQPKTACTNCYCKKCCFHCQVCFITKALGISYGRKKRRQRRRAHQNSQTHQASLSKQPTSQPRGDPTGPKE

[6] = inhibitors of firefly luciferase expression or activity, dose response, H4 neuroglioma cells, luminescence (AID 1990); type: functional, cell-based
[7] = luciferase reporter signal reduction – luminescence, H4-C neuroglioblastoma cells, dose response (AID 2458); type: functional, cell-based;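 note: H4 neuroglioblastoma cells stably carrying a luciferase reporter gene fusion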
[8] = system: Streptococcus sp. 'group A'; assay: growth inhibition of control SK(-) GAS strain, dose response, counter-screen for streptokinase expression inhibitor project, luminescence, kanamycin, BacTiterGlo, confirmation (AID 1900); type: functional, organism-based
cells [9] = type: functional, cell-based
[10] = Luminescence Cell-Based Dose Response HTS to Identify Inhibitors of 5'UTR Stem-Loop Driven Prion Protein mRNA Translation in H4 Neuroglioblastoma Cells. [Related pubchem assays: 1827 (Project Summary), 1813 (Primary HTS)]; type: functional
[11] = inhibitors of SNCA 5'UTR-driven reporter translation, confirmation, H4 neuroglioma cells, luminescence (AID 1988); type: functional, cell-based
Streptokinase A = target: T2, Streptokinase A (Streptococcus pyogenes serotype M1, UniProt P10520); assay: S. pyogenes streptokinase expression inhibitors, potency, dose response, plasminogen activation absorbance, OD405 (AID 1914); type: functional, Streptococcus pyogenes M1 GAS;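 note: secreted streptokinase activity via plasminogen activation per viability signal from cell pellet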
T2 sequence (P10520 whole entry): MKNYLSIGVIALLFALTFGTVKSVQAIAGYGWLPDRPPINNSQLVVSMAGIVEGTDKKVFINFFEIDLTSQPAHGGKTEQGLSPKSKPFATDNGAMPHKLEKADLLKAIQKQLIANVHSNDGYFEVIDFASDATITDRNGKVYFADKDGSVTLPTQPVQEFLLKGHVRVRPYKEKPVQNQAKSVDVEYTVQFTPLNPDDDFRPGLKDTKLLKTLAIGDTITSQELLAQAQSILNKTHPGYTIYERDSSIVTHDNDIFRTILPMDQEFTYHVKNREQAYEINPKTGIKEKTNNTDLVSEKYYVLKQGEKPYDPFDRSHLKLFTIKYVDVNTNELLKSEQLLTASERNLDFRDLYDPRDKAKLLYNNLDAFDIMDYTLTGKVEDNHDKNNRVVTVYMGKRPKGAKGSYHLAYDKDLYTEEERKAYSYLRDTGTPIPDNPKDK

[12] = Luminescence-based dose response cell-based high throughput screening assay for cytotoxic compounds using the IEC-6 intestinal epithelial cell line. [Related pubchem assays: 1858 (Summary AID.), 1825 (Counterscreen.), 1907 (Confirmation screen.)]; type: functional
Streptococcus = assay: Group A Streptococcus viability loss, dose response, counter-screen for streptokinase expression inhibitor project, luminescence, BacTiterGlo (AID 1915); type: functional, organism-based;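 note: potency for reduction of bacterial viability or growth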
[13] = inhibitors of SNCA 5'UTR-driven translation, confirmation, luminescence, H4 neuroglioblastoma cells, dose confirmation (AID 2454); type: functional, cell-based;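 note: H4 neuroglioblastoma cells carrying an alpha-synuclein 5'UTR luciferase reporter; potency for inhibition of the luciferase signal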
[14] = target: Photoreceptor-specific nuclear receptor (Homo sapiens, UniProt Q9Y5X4); type: functional, cell-based;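 note: CHO-S cells with Gal4-NCOR and VP16-NR2E3 two-hybrid luciferase reporter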
Fatty acid synthase [15] = target: T3, Fatty acid synthase (Homo sapiens, UniProt P49327); assay: FAS thioesterase domain inhibitors, dose response, biochemical, endpoint fluorescence intensity, uHTS hits (AID 624327); type: functional;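 note: fluorescence from hydrolysis of an O-methyl fluorescein acyl ester substrate by the enzyme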
Fatty acid synthase [16] = target: T3, Fatty acid synthase; assay: FAS thioesterase domain inhibitors, dose response, biochemical, kinetic fluorescence intensity (AID 624326); type: functional;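 note: rate of fluorescence rise from hydrolysis of a fluorogenic O-methyl fluorescein ester substrate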
Paired box protein Pax-8 = Paired box protein Pax-8 (Homo sapiens, UniProt Q06710); assay: inhibitors of PAX8-driven TPO luciferase reporter, dose response, RMG-I cells, cherry-pick (AID 687027); type: functional, cell-based;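 note: luciferase reporter driven by Pax8 target thyroperoxidase promoter measured by SteadyGlo luminescence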
cells [17] = type: functional
Fibrinogen beta chain [18] = target: T4, Fibrinogen beta chain (Homo sapiens, UniProt P02675); assay: Fluorescence polarization-based biochemical high throughput dose response assay to identify inhibitors that disrupt the binding of a cyclic peptide (Tn6) to the fibrin proteolytic product D-Dimer and fragment E complex [DD(E )].
T4 sequence (P02675 whole entry): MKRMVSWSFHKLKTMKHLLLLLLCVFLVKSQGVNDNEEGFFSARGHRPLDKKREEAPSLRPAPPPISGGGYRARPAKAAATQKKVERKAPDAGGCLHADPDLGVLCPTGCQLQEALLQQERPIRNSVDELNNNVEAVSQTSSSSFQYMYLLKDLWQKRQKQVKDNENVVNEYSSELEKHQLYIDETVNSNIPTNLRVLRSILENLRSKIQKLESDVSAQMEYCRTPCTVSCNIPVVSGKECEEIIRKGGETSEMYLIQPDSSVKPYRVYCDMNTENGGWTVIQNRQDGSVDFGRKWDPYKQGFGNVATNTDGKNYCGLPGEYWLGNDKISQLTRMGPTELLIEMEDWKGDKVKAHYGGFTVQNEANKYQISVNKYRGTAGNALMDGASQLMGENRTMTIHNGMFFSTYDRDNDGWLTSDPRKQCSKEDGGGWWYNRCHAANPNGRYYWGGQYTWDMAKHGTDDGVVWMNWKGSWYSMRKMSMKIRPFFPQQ

Fibrinogen beta chain [19] = target: T4, Fibrinogen beta chain; assay: Fluorescence polarization-based biochemical high throughput dose response assay to identify inhibitors that disrupt the binding of a cyclic peptide (Tn7) to the fibrin proteolytic product D-Dimer and fragment E complex [DD(E )].

T3 sequence (P49327 whole entry, the tested form may be a part): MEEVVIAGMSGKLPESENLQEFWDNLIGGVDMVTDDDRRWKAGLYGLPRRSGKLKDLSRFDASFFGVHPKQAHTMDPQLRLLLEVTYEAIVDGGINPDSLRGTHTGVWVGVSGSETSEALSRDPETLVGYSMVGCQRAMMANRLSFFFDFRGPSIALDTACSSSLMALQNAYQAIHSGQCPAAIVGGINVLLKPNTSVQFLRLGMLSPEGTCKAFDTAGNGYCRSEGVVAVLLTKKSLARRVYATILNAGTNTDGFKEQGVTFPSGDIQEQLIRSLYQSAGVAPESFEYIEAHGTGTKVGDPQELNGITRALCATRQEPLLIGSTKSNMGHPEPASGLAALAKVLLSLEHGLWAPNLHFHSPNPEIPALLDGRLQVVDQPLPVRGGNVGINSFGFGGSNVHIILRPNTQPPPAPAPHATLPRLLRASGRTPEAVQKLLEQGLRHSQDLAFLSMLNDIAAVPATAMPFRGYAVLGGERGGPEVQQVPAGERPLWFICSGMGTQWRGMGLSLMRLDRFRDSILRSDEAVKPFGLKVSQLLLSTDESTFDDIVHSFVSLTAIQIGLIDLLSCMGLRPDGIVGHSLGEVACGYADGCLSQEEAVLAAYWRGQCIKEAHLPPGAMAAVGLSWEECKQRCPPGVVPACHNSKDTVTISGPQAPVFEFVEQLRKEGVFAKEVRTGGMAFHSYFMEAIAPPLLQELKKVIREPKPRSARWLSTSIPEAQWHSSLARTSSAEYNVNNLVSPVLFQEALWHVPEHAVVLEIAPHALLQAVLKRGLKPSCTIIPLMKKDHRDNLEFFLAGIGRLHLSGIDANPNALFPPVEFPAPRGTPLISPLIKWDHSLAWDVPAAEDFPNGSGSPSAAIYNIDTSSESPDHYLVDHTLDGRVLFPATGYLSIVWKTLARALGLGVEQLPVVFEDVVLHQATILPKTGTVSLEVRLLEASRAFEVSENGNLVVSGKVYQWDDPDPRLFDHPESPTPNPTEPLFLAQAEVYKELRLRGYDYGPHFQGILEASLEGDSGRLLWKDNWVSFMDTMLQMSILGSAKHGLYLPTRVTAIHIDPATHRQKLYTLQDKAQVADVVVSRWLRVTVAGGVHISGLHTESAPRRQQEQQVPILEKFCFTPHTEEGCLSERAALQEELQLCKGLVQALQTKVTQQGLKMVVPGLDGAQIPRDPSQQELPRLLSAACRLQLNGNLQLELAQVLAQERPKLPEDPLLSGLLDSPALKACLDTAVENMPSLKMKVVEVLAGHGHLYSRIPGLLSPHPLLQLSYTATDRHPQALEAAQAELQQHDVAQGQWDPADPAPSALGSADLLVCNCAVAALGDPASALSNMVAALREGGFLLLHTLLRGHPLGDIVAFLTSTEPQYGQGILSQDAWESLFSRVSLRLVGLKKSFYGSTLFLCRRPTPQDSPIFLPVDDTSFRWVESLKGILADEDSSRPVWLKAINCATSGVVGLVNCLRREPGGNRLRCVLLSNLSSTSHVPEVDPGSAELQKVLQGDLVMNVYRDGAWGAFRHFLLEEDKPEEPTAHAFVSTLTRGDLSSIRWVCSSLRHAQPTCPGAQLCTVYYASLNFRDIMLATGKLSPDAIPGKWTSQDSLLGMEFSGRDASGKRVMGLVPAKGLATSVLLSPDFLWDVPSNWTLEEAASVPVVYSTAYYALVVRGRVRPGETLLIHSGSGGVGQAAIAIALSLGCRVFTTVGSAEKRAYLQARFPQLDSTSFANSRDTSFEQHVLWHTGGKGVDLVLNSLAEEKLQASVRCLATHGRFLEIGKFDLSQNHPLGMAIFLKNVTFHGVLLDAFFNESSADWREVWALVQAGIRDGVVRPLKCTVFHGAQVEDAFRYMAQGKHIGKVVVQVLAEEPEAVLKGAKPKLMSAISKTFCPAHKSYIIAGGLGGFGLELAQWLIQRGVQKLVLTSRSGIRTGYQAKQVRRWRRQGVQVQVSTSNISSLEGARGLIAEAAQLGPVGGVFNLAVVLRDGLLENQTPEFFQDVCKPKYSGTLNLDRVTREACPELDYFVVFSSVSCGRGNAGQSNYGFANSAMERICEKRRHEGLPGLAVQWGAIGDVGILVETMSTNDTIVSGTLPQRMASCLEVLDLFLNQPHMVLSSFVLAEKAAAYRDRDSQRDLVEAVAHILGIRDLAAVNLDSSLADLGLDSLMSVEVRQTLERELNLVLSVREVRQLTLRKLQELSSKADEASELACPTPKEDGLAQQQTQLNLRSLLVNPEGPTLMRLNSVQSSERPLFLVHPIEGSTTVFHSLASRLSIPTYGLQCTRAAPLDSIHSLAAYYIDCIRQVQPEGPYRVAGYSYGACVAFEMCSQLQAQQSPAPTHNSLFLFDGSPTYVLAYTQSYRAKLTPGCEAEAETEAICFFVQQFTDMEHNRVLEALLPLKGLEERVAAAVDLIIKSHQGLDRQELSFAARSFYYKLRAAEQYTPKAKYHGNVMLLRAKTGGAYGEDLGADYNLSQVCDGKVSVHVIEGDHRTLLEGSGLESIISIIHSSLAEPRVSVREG
Chain of Induced myeloid leukemia cell differentiation protein Mcl-1 (Q07820 whole entry): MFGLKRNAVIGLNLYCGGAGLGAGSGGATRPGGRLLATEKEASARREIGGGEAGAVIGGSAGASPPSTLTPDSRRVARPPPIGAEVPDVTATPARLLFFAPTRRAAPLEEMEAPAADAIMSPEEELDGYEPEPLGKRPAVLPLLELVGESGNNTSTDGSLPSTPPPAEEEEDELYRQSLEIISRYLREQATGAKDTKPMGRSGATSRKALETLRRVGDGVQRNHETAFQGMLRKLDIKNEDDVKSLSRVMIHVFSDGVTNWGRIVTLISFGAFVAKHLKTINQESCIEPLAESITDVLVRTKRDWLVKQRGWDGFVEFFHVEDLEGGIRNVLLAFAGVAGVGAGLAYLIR
Chain of Paired box protein Pax-8 (Q06710 whole entry): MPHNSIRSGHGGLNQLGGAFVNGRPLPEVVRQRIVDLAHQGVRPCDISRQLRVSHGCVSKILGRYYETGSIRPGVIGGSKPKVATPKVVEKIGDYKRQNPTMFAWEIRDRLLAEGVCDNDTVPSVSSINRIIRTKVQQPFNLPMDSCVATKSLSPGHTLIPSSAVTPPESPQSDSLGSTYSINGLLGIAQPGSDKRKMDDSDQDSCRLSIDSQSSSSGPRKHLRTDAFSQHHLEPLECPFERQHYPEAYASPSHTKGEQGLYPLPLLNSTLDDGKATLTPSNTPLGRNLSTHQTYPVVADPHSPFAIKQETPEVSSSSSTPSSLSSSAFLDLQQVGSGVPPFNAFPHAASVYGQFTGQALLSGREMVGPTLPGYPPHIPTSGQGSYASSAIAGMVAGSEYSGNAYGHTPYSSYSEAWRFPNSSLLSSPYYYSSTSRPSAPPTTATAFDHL
Chain of Photoreceptor-specific nuclear receptor (Q9Y5X4 whole entry, the tested form may be a part): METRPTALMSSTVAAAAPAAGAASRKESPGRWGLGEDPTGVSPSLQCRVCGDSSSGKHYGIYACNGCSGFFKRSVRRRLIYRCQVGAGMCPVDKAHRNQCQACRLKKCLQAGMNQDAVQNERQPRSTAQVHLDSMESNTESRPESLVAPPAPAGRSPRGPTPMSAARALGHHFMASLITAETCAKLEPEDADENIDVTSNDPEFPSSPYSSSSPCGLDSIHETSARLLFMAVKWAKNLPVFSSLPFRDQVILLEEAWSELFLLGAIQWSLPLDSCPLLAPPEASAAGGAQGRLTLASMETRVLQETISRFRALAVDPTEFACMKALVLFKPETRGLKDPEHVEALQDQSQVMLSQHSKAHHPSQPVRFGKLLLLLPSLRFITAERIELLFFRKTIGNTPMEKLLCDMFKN

Compound: Cc1ccc(NC(=O)c2ccc(OC(=O)COc3cccc(Cl)c3)cc2)cc1
- IC50 (Prothrombin): 596 nM (active)

Compound: CC(=O)Nc1ccc(S(=O)(=O)N2CCN(CCCOc3ccccc3Cl)CC2)cc1
- CC50 [1]: > 40 µM (active)

Compound: Cc1cc2c(cc1S(=O)(=O)N(C)c1ccccc1)n(C)c(=O)n2C
- EC50 [2]: > 120 µM (not active)

Compound: O=C1NC(=S)N/C1=C/c1ccc(-c2c(Br)cc([N+](=O)[O-])cc2Br)o1
- EC50 [3]: 40.5 µM (active)
- EC50 [4]: 35.2 µM (active)
- IC50 [5]: 2.48 µM (active)
- IC50 (Protein Tat): > 100 µM (active)
- CC50 [1]: > 40 µM (active)

Compound: CC(C)N1CCc2c(sc(NC(=O)c3ccc([N+](=O)[O-])o3)c2C(N)=O)C1
- EC50 [6]: 4.38 µM (active)
- EC50 [7]: 300 nM (active)
- EC50 [8]: 3.19 µM (active)
- EC50 (cells [9]): 496 nM (active)
- EC50 [10]: < 100 nM (active)
- EC50 [11]: 145 nM (active)
- EC50 (Streptokinase A): > 150 µM (not active)
- IC50 [12]: 1.32 µM (active)
- EC50 (Streptococcus): 8.99 µM (active)
- EC50 [13]: 953 nM (active)
- IC50 [14]: 4.58 µM (active)
- IC50 (Fatty acid synthase [15]): 6.27 µM (active)
- IC50 (Fatty acid synthase [16]): 5.65 µM (active)
- AC50 (Paired box protein Pax-8): 1.16 µM (active)

Compound: COc1cccc2cc(-c3nc4ccccc4o3)c(=O)oc12
- EC50 [2]: > 120 µM (not active)
- IC50 (cells [17]): 14.9 µM (active)

Compound: Cc1cc(C)c(S(=O)(=O)NCCn2c(C)cc3ccccc32)c(C)c1
- IC50 (Fibrinogen beta chain [18]): 15.1 µM (inactive)
- IC50 (Fibrinogen beta chain [19]): > 83.3 µM (inactive)

Source: ChEMBL document CHEMBL1201862, “PubChem BioAssay data set” (2004)
